Data as given in patent publication US7470442B2, “Confectionary compositions with magnolia bark extract” (GIC Innovations Company, priority 2005, dated 2008).
Values after ≈ are worked out from the molar mass of the structure shown.

What was measured:
Format in all cases: cell-based
S. mutans biofilm [1] = assay: MIC for formation of S. mutans biofilm in 96-well plates; conditions: BHI with 0.5% sucrose, 48 h, attached biofilm OD 660 nm
Experimental: (§1) Further to the results described above, the effect of Magnolia Bark Extract on biofilm formation and removal was compared with different herbal and natural ingredients. Comparative testing was performed using green tea extract, Oolong tea extract, Licorice, and Magnolia Bark Extract. The comparative testing included determining the solubility in water, ethanol, water:ethanol mixtures and other solvents (for example, Tween in water), MIC for growth of S. mutans, MIC for formation of S. mutans biofilm in 96-well plates, and the effect on detachment of S. mutans biofilm. To further evaluate the effect on S. mutans biofilm formation, 96-well microtiter plates were used. Each well contained S. mutans (5×10^6 CFU/ml), and was serially diluted with test compounds and growth medium (brain heart infusion broth (BHI) with 0.5% sucrose). The controls included inoculated growth medium without test compounds. All plates were incubated at 37° C. under aerobic condition with growth estimated spectrophotometrically (660 nm) after 48 h using a microtiter plate reader. Then, the supernatant containing unattached cells was removed from each wells by aspiration, the attached biofilm mass was dissolved with 200 μl 1 N NaOH and the optical density was measured at 660 nm using the microtiter plate reader. Chlorhexidine (40 μg/ml) was used as a positive control.

Porphyromonas gingivalis [2] = assay: Minimum-Bactericidal-Concentrations (MBC), plating on blood agar; conditions: kills at least 99.9% of initial inoculum
Experimental: To evaluate the effectiveness of Magnolia Bark Extract, in vitro tests were conducted with three subgingival plaque bacteria associated with oral malodor. The Minimum-Inhibitory-Concentrations (MIC) study protocol is as follows. Chlorhexidine was used as a positive control and sterile water was used as a negative control. Menthol and Tween 80 was used as a solvent for Magnolia Bark Extract. Tween 80 is the common name for Polysorbate 80. Ninety-six-well microtiter plates were used for this study. Each well contained 5×10^5 colony forming units/ml of bacteria, serially diluted agents and bacterial growth medium. All bacterial cultures were incubated at 37° C. and stationary. Bacterial growth was estimated spectrophotometrically at 660 nm, after 48 hours. […] The Minimum-Bactericidal-Concentrations (MBC) were determined using the 96-well microtiter plate serial dilutions as described above for MIC studies. Serial dilutions of cultures in wells showing no visible growth were performed and 10 microliters of culture were plated in triplicate on blood agar plates. Viable colonies were scored after incubation of the plates for 48 hours at 37° C. For each test bacterium, the number of colony forming units/ml (CFU/ml) was determined in the initial inoculum. The MBC was defined as the lowest concentration of a test compound that killed at least 99.9% of the cells present in the initial inoculum.

Fusobacterium nucleatum [3] = assay: as above; conditions: kills at least 99.9% of initial inoculum
S. mutans biofilm [4] = assay: Effect on detachment of S. mutans biofilm; conditions: pre-formed 48 h S. mutans biofilm, 30 min exposure
Experimental: Further to the results described above, the effect of Magnolia Bark Extract on biofilm formation and removal was compared with different herbal and natural ingredients. Comparative testing was performed using green tea extract, Oolong tea extract, Licorice, and Magnolia Bark Extract. The comparative testing included determining the solubility in water, ethanol, water:ethanol mixtures and other solvents (for example, Tween in water), MIC for growth of S. mutans, MIC for formation of S. mutans biofilm in 96-well plates, and the effect on detachment of S. mutans biofilm. To further evaluate the effect on S. mutans biofilm detachment, sterile 96-well microtiter plates were used where each well was inoculated with S. mutans (5×10^6 CFU/ml), growth medium (BHI supplemented with 0.5% sucrose), and incubated at 37° C. under aerobic condition for biofilm formation. After 48 hours, the non-attached supernatant was aspirated and serially diluted. […] After 30 min, the supernatant was aspirated from wells and the biofilm remaining after treatment was dissolved in 200 μl 1N NaOH, and quantitated at 660 nm using the plate reader. […] If detachment of the biofilm by action of the test compounds occurred, the spectrophotometric absorbance or optical density (OD) should show a decrease compared to the non-treated control.

[5] = system: bacteria from freshly-collected stimulated whole saliva; assay: Mixed culture saliva biofilm on saliva-coated hydroxyapatite discs, timed exposure to actives
Experimental: Although useful to show the comparative effect of Magnolia Bark Extract on biofilm formation and MIC growth, the foregoing test procedure may not effectively mimic the in vivo exposure of a confectionary composition such as a pressed tablet to a developing plaque biofilm. In an in vivo situation, the active could be exposed to the plaque for a defined period of time at a set frequency (for example, for 5 minutes, three times a day). Therefore, a series of comparative experiments were conducted to mimic the in vivo use of potential active ingredients. To perform the tests the saliva compositions listed below in Tables 2 and 3 were prepared. A mixed culture system that utilizes the bacteria from freshly-collected stimulated whole saliva was used. Saliva cell pellets were used to inoculate saliva-coated hydroxyapatite (S-HA) discs. The discs were placed in 24-well cell culture plates and incubated for up to 3 days. Biofilms were exposed to actives on days 2 and 3 (starting at 18 hours), and quantified on day 4. The number of bacteria was determined by spectrophotometric absorbance or optical density (OD) at 600 nm. The five phases of the experiment were: pellicle formation; bacterial attachment; biofilm growth; exposure to actives; and bacterial enumeration. To form the pellicles, HA Discs were ultrasonically washed in deionized water and air-dried, then autoclaved. The discs were placed in a 24-well plate with 1 ml 50% sterile saliva (1 part sterile whole saliva: 1 part saliva buffer, filter sterilize after preparation) for 2 hours on slow agitation at room temperature. The saliva was suctioned and then the discs were transferred to fresh wells for bacterial attachment. To form the biofilms, the bacterial suspension was removed, and the discs were transferred to fresh wells. One ml of supplemented saliva medium was added and the plate was placed in the incubator for overnight incubation and for the duration of the experiment (up to 72 hours). A stock solution of 1% Magnolia Bark Extract in 60% ethanol was prepared. Magnolia Bark Extract samples were prepared having a concentration range of 125, 250, 500, and 1000 μg/ml (ppm) in a Phosphate-Buffered-Saline (PBS) solution, where the negative control was PBS and the positive control was CHX having a concentration of 0.12%. […] One ml quantities of active ingredients and controls were placed into fresh wells, and the discs were transferred to these wells for 5 minutes. The chlorhexidine control exposure was one minute, two times a day to mimic the standard mouth-rinse procedure. The exposure to active ingredient was carried out at 8:00 AM, 12:00 and 4:00 PM. After the timed exposure, the solution was removed and the discs washed twice with PBS and then transferred to fresh medium. For some experiments, the medium used during the day was TSB (Tryptic Soy Broth) with a 50 μl 40% sterile sucrose solution added to each well (to give a 2% sucrose solution). The medium was not replaced after the mid-day exposure. After overnight incubation (day 2), discs were exposed to controls and actives. On day 3 the biofilms were again exposed to tests and controls. On day 4 the discs were removed from the medium, the medium pH was measured to obtain an indication of metabolic activity, and the discs were placed into tubes with 2.5 ml PBS, vortexed for 20 sec, and then placed into the ultrasonic bath for another 20 sec. The suspension was transferred into cuvettes and the bacterial cell density determined by OD measurements at 600 nm. To evaluate the effect of Magnolia Bark Extract in combination with the surface active agent, sodium lauryl sulfate, five active ingredient solutions were prepared using the procedures described above. […] Also, the MBE solutions were prepared to have a concentration of 500 ppm. Sodium lauryl sulfate was added to two of the Magnolia Bark Extract solutions to obtain SLS concentrations of 0.05% and 0.1% in the Magnolia Bark Extract solutions. […]

Streptococcus mutans [6] = assay: Minimum-Bactericidal-Concentrations (MBC), plating on blood agar; conditions: kills at least 99.9% of initial inoculum
S. mutans [7] = assay: MIC for growth of S. mutans (comparative testing); conditions: Streptococcus mutans, BHI with 0.5% sucrose, 48 h
Experimental: as §1

Porphyromonas gingivalis [8] = assay: Minimum-Inhibitory-Concentrations (MIC) study, 96-well microtiter plates; conditions: 48 hours, 37° C., turbidity at 660 nm
Experimental: (§2) To evaluate the effectiveness of Magnolia Bark Extract, in vitro tests were conducted with three subgingival plaque bacteria associated with oral malodor. The Minimum-Inhibitory-Concentrations (MIC) study protocol is as follows. Chlorhexidine was used as a positive control and sterile water was used as a negative control. Menthol and Tween 80 was used as a solvent for Magnolia Bark Extract. Tween 80 is the common name for Polysorbate 80. Ninety-six-well microtiter plates were used for this study. Each well contained 5×10^5 colony forming units/ml of bacteria, serially diluted agents and bacterial growth medium. All bacterial cultures were incubated at 37° C. and stationary. Bacterial growth was estimated spectrophotometrically at 660 nm, after 48 hours.

Streptococcus mutans [9] = assay: as above; conditions: 48 hours, 37° C., turbidity at 660 nm
Experimental: as §2

Fusobacterium nucleatum [10] = assay: as above; conditions: 48 hours, 37° C., turbidity at 660 nm
Experimental: as §2

S. mutans [11] = assay: MIC and fractional inhibitory index of combinations on S. mutans; conditions: 24 hours at 37° C.
Experimental: To evaluate the germ-kill efficacy and synergist effect when two or more germ-kill actives are combined, testing was performed to determine the ratio of MBE to surface active agent. The germ-kill active and/or surface active agent were dissolved in ethanol or sterile water to give an initial concentration 0.1% to 1%. The solution was diluted with a nutrient broth to give an initial concentration of 0.05% to 0.5%, which was then serially diluted two-fold so that each subsequent dilution contained 50% of the compound concentration of the previous dilution while maintaining a constant level of nutrients for each dilution. These dilutions were inoculated with representative oral microorganisms, or incubated saliva, and incubated for 24 hours at 37° C. For each surface active agent, the lowest dilution that was not turbid was registered as the MIC. The MBC was determined by transferring 10 microliter of liquid from non-turbid tubes to fresh growth media and incubated for 48 hours. […] (1) where an FIC value of less than 1.0 is synergistic, an FIC between 1.0 and 2.0 is additive, and an FIC greater than 2.0 is antagonistic.

incubated saliva = assay: MIC of surface active agents and emulsifiers on incubated saliva, two-fold serial dilution; conditions: for MIC (ppm) / MIC: 24 hours at 37° C.; for germ-kill efficacy in words: summary of Table 9
Experimental: To evaluate the germ-kill efficacy and synergist effect when two or more germ-kill actives are combined, testing was performed to determine the ratio of MBE to surface active agent. The germ-kill active and/or surface active agent were dissolved in ethanol or sterile water to give an initial concentration 0.1% to 1%. The solution was diluted with a nutrient broth to give an initial concentration of 0.05% to 0.5%, which was then serially diluted two-fold so that each subsequent dilution contained 50% of the compound concentration of the previous dilution while maintaining a constant level of nutrients for each dilution. These dilutions were inoculated with representative oral microorganisms, or incubated saliva, and incubated for 24 hours at 37° C. For each surface active agent, the lowest dilution that was not turbid was registered as the MIC. The MBC was determined by transferring 10 microliter of liquid from non-turbid tubes to fresh growth media and incubated for 48 hours.

[12] = CHX 0.12%, one minute, two times a day, day 4
[13] = repeat experiment with SLS, CHX 0.1% (1000 ppm)
[14] = repeat experiment with SLS, SLS 1000 ppm

For `[H]/N=C(\N/C(=N/[H])NCCCCCCNC(=N)NC(=N)Nc1ccc(Cl)cc1)Nc1ccc(Cl)cc1` [CHX, chlorhexidine], the MIC biofilm formation (S. mutans biofilm [1]) was 2.5 µg/mL (≈ 4.95 µM), the MBC (Porphyromonas gingivalis [2]) was 1.25 µg/mL (≈ 2.47 µM) and the MBC (Fusobacterium nucleatum [3]) was 1.25 µg/mL (≈ 2.47 µM). For the same molecule, the MIC biofilm detachment (S. mutans biofilm [4]) was over 10 µg/mL, the “% OD reduction at 600 nm compared to PBS control” value [5, 12] was 84% and the “pH of the medium (metabolic activity)” value [5, 12] was 8.8. For the same molecule, the “% OD reduction at 600 nm” value [5, 13] was 94%, the “pH of the medium (metabolic activity)” value [5, 13] was 8.8 and the MBC (Streptococcus mutans [6]) was 1.25 µg/mL (≈ 2.47 µM). For the same molecule, the MIC (S. mutans [7]) was 2.5 µg/mL (≈ 4.95 µM), the MIC (Porphyromonas gingivalis [8]) was 1.25 µg/mL (≈ 2.47 µM) and the MIC (Streptococcus mutans [9]) was 1.25 µg/mL (≈ 2.47 µM). The MIC (Fusobacterium nucleatum [10]) was 1.25 µg/mL (≈ 2.47 µM).

`N=C(NCCCCCCNC(=N)NC(=N)Nc1ccc(Cl)cc1)NC(=N)Nc1ccc(Cl)cc1.O=C(O)[C@H](O)[C@@H](O)[C@H](O)[C@H](O)CO.O=C(O)[C@H](O)[C@@H](O)[C@H](O)[C@H](O)CO` [Chlorhexidine gluconate, reference compound] was tested, and the MIC/ppm (S. mutans [11]) was 2 ppm and the “MIC (ppm)” value (incubated saliva) was 2 ppm.

With `CCCCCCCCCCCCOS(=O)(=O)[O-].[Na+]` [SLS, sodium lauryl sulfate] the MIC/ppm (S. mutans [11]) was 100 ppm, the MIC (incubated saliva) was 50 µg/mL and the “germ-kill efficacy in words” value (incubated saliva) was “good germ-kill surface active agents”. For the same molecule, the “% OD reduction at 600 nm” value [5, 14] was 61% and the “pH of the medium (metabolic activity)” value [5, 14] was 5.7.

For `CCCCCCCCCCCC(=O)OCCOCCOCCOCCOCCOCCOCCOCCOCCOCCOCCOCCOCCOCCOCCOCCOCCOCCOCCOCCOCC(OCCOCCOCCOCCOCCOCCOCCOCCOCCOCCOCCOCCOCCOCCOCCOCCOCCOCCOCCOCCO)C1OCC(OCCOCCOCCOCCOCCOCCOCCOCCOCCOCCOCCOCCOCCOCCOCCOCCOCCOCCOCCOCCO)C1OCCOCCOCCOCCOCCOCCOCCOCCOCCOCCOCCOCCOCCOCCOCCOCCOCCOCCOCCOCCO` (stereo not shown) [Tween 20, Polysorbate 20], the MIC (incubated saliva) was over 1000 µg/mL and the “germ-kill efficacy in words” value (incubated saliva) was “weak or non germ-kill actives”.

For Cocamidopropyl Betaine, the “germ-kill efficacy in words” value (incubated saliva) was “good germ-kill surface active agents”.

Sodium Brasslate was tested, and the “MIC (ppm)” value (incubated saliva) was 500 ppm and the “germ-kill efficacy in words” value (incubated saliva) was “moderate germ-kill efficacy”.

In the case of Sodium Stearoyl Lactylate, the “MIC (ppm)” value (incubated saliva) is reported as over 3000 ppm and the “germ-kill efficacy in words” value (incubated saliva) is reported as “weak or non germ-kill actives”.

In the case of Sucrose Distearate, the “MIC (ppm)” value (incubated saliva) is reported as over 500 ppm and the “germ-kill efficacy in words” value (incubated saliva) is reported as “weak or non germ-kill actives”.

With Sucrose Stearate the “MIC (ppm)” value (incubated saliva) was over 500 ppm and the “germ-kill efficacy in words” value (incubated saliva) was “weak or non germ-kill actives”.
